Results on one compound are retold here after patent US12503438B2, “Compounds for the treatment of kinase-dependent disorders” (Exelixis, Inc., priority 2019, dated 2025).

In general, IC50 refers to the concentration needed to halve the response being measured.

SMILES strings stand for the structures.

Holding throughout (format): cell-based
The target of one test is Met (Homo sapiens, UniProt P08581). Put plainly: Met autophosphorylation ELISA in PC-3 cells. Also on record: endogenous in cells; host or cells: PC-3 prostate cancer cells (ATCC #CRL-1435). To be noted: cellular activity, HGF-stimulated, phospho-Met ELISA, read-out: c-Met IC50. Here is the method:
PC-3 prostate cancer cells (ATCC #CRL-1435) were seeded at 4×10^4 cells/well onto 24-well plates (Greiner #662165), in DMEM (Thermo Fisher #11995-040) containing 10% FBS (Thermo Fisher #26140-079), 1% MEM NEAA (Thermo Fisher #11140-050), 1% GlutaMax (Thermo Fisher #35050-061), and 1% Penicillin Streptomycin (Thermo Fisher #15140-122). PC-3 cells were incubated at 37° C., 5% CO2 for 24 h and then starved for 3 h in serum-free medium. Test compounds were serially diluted to produce an 8-point dose curve in fresh serum-free medium to a final concentration of 0.3% DMSO (vehicle) and added to the cells and incubated for 1 h. Cells were then stimulated with 100 ng/mL recombinant human HGF (R&D Systems #294-HG-250) for 10 min, washed with cold PBS and immediately lysed with 130 μL of cold 1× lysis buffer [20 mM Tris, 137 mM sodium chloride, 2 mM EDTA, 10% glycerol, 1% NP-40 alternative, 1 mM activated sodium orthovanadate, 1 mM PefaBloc SC (Sigma-Aldrich #11429868001), protease/phosphatase inhibitor tablet (Thermo Fisher #A32959)]. Lysates were clarified by centrifugation and 100 μL/well added into the PathScan phospho-Met (panTyr) Sandwich ELISA (Cell Signaling Technology #7333). Assay was performed according to manufacturer's instructions. Positive control wells (100% activity) contained HGF-stimulated, DMSO-treated cell lysates. Negative control wells (0% activity) contained HGF-stimulated, reference inhibitor-treated cell lysates. IC50 values were calculated by nonlinear regression analysis using a 4-parameter logistic curve fit in ActivityBase XE (IDBS).

The next test addresses KDR (Homo sapiens, UniProt P35968). Put plainly: KDR autophosphorylation ELISA in HUVEC cells. Also on record: endogenous in cells; host or cells: HUVEC (Lonza #C2519A). To be noted: cellular activity, VEGF165-stimulated, phospho-KDR ELISA. Here is the method: Human umbilical vein endothelial cells or HUVEC (Lonza #C2519A) were seeded at 2×10^4 cells/well onto 96-well plates (Corning #3904), in EGM-2 growth medium (Lonza #CC-3162) containing 1% Penicillin Streptomycin (Thermo Fisher #15140-122). HUVEC cells were incubated at 37° C., 5% CO2 for 24 h and then starved for 24 h in serum-free EBM-2 basal medium (Lonza #CC-3156) containing 1% Penicillin Streptomycin. Test compounds were serially diluted to produce an 8-point dose curve in fresh serum-free medium to a final concentration of 0.3% DMSO (vehicle) and added to the cells and incubated for 1 h. Cells were then stimulated with 100 ng/mL recombinant human VEGF165 (R&D Systems #293-VE-500) for 5 min, washed with cold PBS, and immediately lysed with 130 μL of cold 1× lysis buffer [20 mM Tris, 137 mM sodium chloride, 2 mM EDTA, 10% glycerol, 1% NP-40 alternative, 1 mM activated sodium orthovanadate, 1 mM PefaBloc SC (Sigma-Aldrich #11429868001), protease/phosphatase inhibitor tablet (Thermo Fisher #A32959)]. Lysates were collected and 100 μL/well added into the human phospho-KDR DuoSet IC ELISA (R&D Systems #DYC1766-2). Assay was performed according to manufacturer's instructions and sample phospho-KDR concentrations were extrapolated using human phospho-KDR control (R&D Systems #841421) as a standard. Positive control wells (100% activity) contained VEGF165-stimulated, DMSO-treated cell lysates. Negative control wells (0% activity) contained non-stimulated cell lysates. IC50 values were calculated by nonlinear regression analysis using a 4-parameter logistic curve fit in ActivityBase XE (IDBS).

The target of another test is T1, AXL (Homo sapiens, UniProt P30530).
T1 construct: endogenous in cells; host or cells: A-172 glioblastoma cells (ATCC #CRL-1620)
T1 sequence (P30530 26-894): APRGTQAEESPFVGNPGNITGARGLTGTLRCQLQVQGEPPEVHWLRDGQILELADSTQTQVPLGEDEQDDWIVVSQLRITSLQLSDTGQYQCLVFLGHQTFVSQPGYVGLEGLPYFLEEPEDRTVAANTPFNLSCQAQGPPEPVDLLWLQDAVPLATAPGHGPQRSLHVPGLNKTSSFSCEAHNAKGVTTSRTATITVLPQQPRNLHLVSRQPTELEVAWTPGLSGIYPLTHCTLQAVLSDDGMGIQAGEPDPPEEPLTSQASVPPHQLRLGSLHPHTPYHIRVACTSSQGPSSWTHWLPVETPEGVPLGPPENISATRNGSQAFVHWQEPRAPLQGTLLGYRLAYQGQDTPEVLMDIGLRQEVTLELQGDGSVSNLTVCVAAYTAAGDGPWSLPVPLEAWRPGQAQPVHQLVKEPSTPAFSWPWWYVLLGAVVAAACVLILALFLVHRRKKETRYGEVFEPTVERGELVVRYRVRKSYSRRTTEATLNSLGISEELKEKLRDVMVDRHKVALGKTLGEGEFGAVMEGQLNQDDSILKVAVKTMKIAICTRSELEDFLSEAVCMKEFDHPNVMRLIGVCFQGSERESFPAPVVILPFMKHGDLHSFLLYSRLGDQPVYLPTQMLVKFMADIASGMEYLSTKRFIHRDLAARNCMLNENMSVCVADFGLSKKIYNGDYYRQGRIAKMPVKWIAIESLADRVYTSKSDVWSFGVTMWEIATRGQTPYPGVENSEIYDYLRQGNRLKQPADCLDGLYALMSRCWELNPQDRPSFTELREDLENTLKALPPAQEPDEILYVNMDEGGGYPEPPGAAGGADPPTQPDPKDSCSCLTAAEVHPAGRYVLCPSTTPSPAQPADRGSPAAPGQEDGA
Put plainly: AXL autophosphorylation ELISA in A-172 cells. The note with it: cellular activity, Gas6-stimulated, phospho-AXL ELISA. Here is the method: A-172 glioblastoma cells (ATCC #CRL-1620) were seeded at 2.5×10^5 cells/well onto 24-well plates (Greiner #662165), in DMEM (Thermo Fisher #11995-040) containing 10% FBS (Thermo Fisher #26140-079), 1% MEM NEAA (Thermo Fisher #11140-050), 1% GlutaMax (Thermo Fisher #35050-061) and 1% Penicillin Streptomycin (Thermo Fisher #15140-122). A-172 cells were incubated at 37° C., 5% CO2 for 24 h and then starved for 24 h in serum-free medium. Test compounds were serially diluted to produce an 8-point dose curve in fresh serum-free medium to a final concentration of 0.3% DMSO (vehicle) and added to the cells and incubated for 1 h. Cells were then stimulated with 1 μg/mL recombinant human Gas6 (R&D Systems #885-GSB-500) for 15 min, washed with cold PBS and immediately lysed with 150 μL of cold 1× lysis buffer [20 mM Tris, 137 mM sodium chloride, 2 mM EDTA, 10% glycerol, 1% NP-40 alternative, 1 mM activated sodium orthovanadate, 1 mM PefaBloc SC (Sigma-Aldrich #11429868001), protease/phosphatase inhibitor tablet (Thermo Fisher #A32959)]. Lysates were collected and 100 μL/well added into the human phospho-AXL DuoSet IC ELISA (R&D Systems #DYC2228-2). Assay was performed according to manufacturer's instructions and sample phospho-AXL concentrations were extrapolated using human phospho-AXL control (R&D Systems #841645) as a standard. Positive control wells (100% activity) contained Gas6-stimulated, DMSO-treated cell lysates. Negative control wells (0% activity) contained Gas6-stimulated, reference inhibitor-treated cell lysates. IC50 values were calculated by nonlinear regression analysis using a 4-parameter logistic curve fit in ActivityBase XE (IDBS).
Background: In an ELISA, binding on a coated surface is turned into a signal by an enzyme label.

Sequence of KDR (P35968 20-1356): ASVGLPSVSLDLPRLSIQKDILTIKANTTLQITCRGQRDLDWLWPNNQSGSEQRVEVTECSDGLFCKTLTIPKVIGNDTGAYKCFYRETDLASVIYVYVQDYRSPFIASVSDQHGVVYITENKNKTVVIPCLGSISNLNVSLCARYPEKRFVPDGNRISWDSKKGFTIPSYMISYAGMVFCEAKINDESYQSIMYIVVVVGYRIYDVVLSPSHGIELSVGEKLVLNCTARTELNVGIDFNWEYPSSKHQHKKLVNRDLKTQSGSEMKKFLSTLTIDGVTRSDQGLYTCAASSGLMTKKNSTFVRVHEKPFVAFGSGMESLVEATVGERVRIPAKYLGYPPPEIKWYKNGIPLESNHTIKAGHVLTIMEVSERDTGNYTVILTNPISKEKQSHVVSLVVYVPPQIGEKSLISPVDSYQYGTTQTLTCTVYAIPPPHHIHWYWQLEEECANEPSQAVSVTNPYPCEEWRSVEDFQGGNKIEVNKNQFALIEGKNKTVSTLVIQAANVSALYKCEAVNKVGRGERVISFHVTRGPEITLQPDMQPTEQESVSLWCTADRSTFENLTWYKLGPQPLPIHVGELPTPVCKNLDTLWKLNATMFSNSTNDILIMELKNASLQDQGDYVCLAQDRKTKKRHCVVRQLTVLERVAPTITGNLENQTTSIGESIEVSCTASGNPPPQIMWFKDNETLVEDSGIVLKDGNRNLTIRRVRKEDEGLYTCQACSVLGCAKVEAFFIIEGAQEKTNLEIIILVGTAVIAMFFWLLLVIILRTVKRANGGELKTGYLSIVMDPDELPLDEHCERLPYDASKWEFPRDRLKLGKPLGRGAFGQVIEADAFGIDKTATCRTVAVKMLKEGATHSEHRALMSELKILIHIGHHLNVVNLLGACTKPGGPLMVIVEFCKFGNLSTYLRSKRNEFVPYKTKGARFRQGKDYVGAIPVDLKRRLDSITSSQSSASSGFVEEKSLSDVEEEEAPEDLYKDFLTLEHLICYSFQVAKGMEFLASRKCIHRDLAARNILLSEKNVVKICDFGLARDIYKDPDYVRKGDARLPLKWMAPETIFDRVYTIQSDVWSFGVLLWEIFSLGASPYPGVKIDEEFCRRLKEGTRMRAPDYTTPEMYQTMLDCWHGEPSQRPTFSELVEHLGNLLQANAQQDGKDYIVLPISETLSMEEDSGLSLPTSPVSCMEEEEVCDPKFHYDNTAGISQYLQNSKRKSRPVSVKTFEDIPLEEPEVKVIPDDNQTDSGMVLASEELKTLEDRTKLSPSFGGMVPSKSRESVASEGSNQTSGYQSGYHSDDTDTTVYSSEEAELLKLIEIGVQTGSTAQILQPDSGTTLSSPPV
Sequence of Met (P08581 25-1390): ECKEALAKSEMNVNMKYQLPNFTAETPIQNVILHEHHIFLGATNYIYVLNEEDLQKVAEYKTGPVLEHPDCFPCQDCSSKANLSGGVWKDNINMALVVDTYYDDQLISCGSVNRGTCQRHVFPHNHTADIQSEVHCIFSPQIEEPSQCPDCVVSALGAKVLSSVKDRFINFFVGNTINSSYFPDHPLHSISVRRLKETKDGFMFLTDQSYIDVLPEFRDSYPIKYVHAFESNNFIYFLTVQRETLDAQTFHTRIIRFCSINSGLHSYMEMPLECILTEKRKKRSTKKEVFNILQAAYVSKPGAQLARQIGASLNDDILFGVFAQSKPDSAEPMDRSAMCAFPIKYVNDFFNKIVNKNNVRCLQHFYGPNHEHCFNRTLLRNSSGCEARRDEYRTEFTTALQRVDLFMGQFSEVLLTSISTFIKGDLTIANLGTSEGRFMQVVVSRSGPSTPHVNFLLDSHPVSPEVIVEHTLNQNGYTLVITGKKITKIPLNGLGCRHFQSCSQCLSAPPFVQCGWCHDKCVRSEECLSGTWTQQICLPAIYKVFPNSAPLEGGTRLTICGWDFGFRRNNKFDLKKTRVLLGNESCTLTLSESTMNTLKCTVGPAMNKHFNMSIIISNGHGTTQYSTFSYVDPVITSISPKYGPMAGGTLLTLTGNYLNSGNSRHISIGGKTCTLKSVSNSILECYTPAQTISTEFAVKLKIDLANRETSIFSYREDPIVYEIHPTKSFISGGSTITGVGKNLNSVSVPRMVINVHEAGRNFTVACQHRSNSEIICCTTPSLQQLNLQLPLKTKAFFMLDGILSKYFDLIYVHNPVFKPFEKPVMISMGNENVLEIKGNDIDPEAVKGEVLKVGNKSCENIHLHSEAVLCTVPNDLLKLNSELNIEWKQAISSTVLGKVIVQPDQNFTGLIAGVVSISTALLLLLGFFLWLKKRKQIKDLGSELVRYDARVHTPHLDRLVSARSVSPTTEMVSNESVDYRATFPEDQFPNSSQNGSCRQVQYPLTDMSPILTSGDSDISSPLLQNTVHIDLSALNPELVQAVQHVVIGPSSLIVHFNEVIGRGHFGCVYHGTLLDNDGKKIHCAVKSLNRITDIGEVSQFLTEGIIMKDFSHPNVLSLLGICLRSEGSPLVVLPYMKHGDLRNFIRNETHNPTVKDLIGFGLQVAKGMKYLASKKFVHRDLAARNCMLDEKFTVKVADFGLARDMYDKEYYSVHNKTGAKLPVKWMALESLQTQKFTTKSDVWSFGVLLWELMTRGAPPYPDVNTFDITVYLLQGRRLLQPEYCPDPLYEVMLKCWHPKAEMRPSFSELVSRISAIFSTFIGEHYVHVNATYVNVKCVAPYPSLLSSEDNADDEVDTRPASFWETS

As for `Cc1ccc(-c2ccc3c(Oc4ccc(NC(=O)C5(C(=O)Nc6ccc(F)cc6)CC5)cc4)ccnc3c2)cn1` [Compound 37, 1-N′-(4-Fluorophenyl)-1-N-[4-[7-(6-methylpyridin-3-yl)quinolin-4-yl]oxyphenyl]cyclopropane-1,1-dicarboxamide], the results for the IC50 on Met, against KDR and against AXL were 0.01 to 0.1 µM, 0.01 to 0.1 µM and 0.1 to 0.3 µM, respectively.
